Source: patent US20220386582A1, “METHOD AND DEVICE TO TRAP ACARIDS” (DOMOBIOS, priority 2015, published 2022)

What was measured:
Format in all cases: in vivo
Acarus siro = assay: Binary choice test in Petri dish, felt with lavandulol composition versus felt with water
Description: (§1) A group of mites (20<n<40) was placed in the center of a Petri dish (diameter 5.5 cm) around which two felt pieces (density of 70 mg/cm^2, thickness of 2 mm) were placed equidistant. The first felt piece was impregnated with water and the other felt piece was impregnated with the lavandulol composition at different dilutions. The diluted lavandulol solutions were prepared from a 90-95% pure lavandulol stock solution (Phytolab, catalog No. 80887). Mites moved spontaneously towards one of the two felt pieces. The number of mites migrating to one side or to the other side was counted and this distribution was compared to a situation where mites were placed in a Petri dish containing two felt pieces impregnated with water. Observations, counting, and identification of mites' species were performed under binocular microscope (magnification 10×). The set-up is illuminated with a cold lamp (KL 1500 LCD, Schott ●), the lighting is symmetric and the light intensity was 50Klux. The experimental conditions were controlled in the room (T° C.: 19-22° C. and RH 40%).

Tyrophagus putrescentiae = assay: as above
Description: as §1

mites = assay: Short (5 minutes) exposure without drying time on consecutive days (FIG. 9); details: lavandulol diluted at 10^−6, 5 minutes exposure, no drying time; first day of treatment
Description: FIG. 9 is a graph representing the attracting efficiency of a 5 minutes time exposure of a composition comprising lavandulol diluted at 10^−6. The graph represents the percentage of mites trapped by a fabric sprayed with compositions, as a function of the days of exposure to the attracting composition. Similar experiments were performed to determine attractiveness of mites when an attracting solution comprising one or more attractive agents is exposed during a short time without drying time.

Dermatophagoides farinae = assay: Mini-mattress trap: attraction capabilities of attracting solutions sprayed on felt
Description: (§2) Rearing: The species studied were Dermatophagoides pteronyssinus and Dermatophagoides farinae, house dust mite common in mattresses in Eurasia. Mites are reared in Petri dishes and fed with human skin flakes (skin and whiskers obtained by cleaning electric […]). All mites were reared together under defined conditions (20° C. and 75% relative humidity). The experiments took place in a room kept at 20° C. and 40% relative humidity. Aim of the experiments: The aim was to test the trap in condition similar to the conditions that will be met by the user of the trap. Materials and methods: The mattresses were built at a smaller scale (15× reduction) than usual mattresses. These mini-mattresses are made in polyurethane and covered by a cover in cotton. They were infested with mites since at least 3 months. The fabric was a felt of 20 mg/cm^2 and is a rectangle of 10 cm×20 cm. It was placed on the mini-mattress. Then the attracting solution was sprayed on the fabric with a spray bottle. The fabric was left in place on the mattress during one hour. During this time, the mites moved in the felt. It is very difficult to count directly the mites hidden in the mattress and in the fabric. Therefore, we used a Berlèse funnel which is a device that is usually used to separate insects from litter. Here, it was used to separate the mites from their mattress or from the fabric. The Berlèse funnel uses a light bulb to heat and dry the mattress, thus driving the mites downwards through a screen and into a collecting jar containing some food and some water. […] They are attracted by a source of moisture and the smell of food. The mattress or blanket were therefore placed in the funnel (FIG. 2). The mites went downwards in the direction of the jar, then in the jar. The harvest of the jar containing the mites took place after one day. Mites had then 24 hours to migrate to the jar collector. As a substantial proportion of the population is immobile (moulting mites), trapping is less efficient than it would be otherwise and estimate of population size that is trapped are likely to be biased. To avoid this bias and make a proper assessment of the populations in infested mattresses, mattresses were carefully brushed with a soft brush at the end of the manipulation meaning that immobile mites and eggs also fall into the funnel. Fabric was carefully brushed too. The Berlèze funnel was rinsed with ethanol. Thus, mites still on the inner wall of the funnel were driven by ethanol in the jar collector. At the end of the experiment, the jar contained: the food used as attracting to mites, a small amount of water also used for attracting, mites, and ethanol. The jar was emptied into a Petri dish and we counted mites under binocular. Counting of mites was made under binocular microscope (magnification 10×). The set-up is illuminated with a cold lamp (KL 1500 LCD, Schott ●). The felt was sprayed with different attracting compositions: a solution of lavandulol, a solution of Tween 60, a combination of lavandulol and Tween 60, a solution of citral, and the attracting solution commercialized under the brand name Acar'up were compared at various dilutions.

[1] = system: Dermatophagoides pteronyssinus; assay: as above
Description: as §2

[2] = at least at a dilution of 10^−3, even more at least at 10^−6
[3] = Dilution 10^−6 (* mixture of a lavandulol solution at 10^−6 and a Tween 60 solution at 10^−6)

Compound: C=C(C)C(CO)CC=C(C)C (centres unmarked) [Lavandulol, 5-Methyl-2-prop-1-en-2-ylhex-4-en-1-ol]
- Number of mites on the felt piece impregnated with the lavandulol composition (Acarus siro; Dilution 10^−3): 44%
- Number of mites on the felt piece impregnated with the lavandulol composition (Acarus siro; Dilution 10^−6): 48%
- Number of mites on the felt piece impregnated with the lavandulol composition (Acarus siro; Dilution 10^−9): 40%
- Number of mites on the felt piece impregnated with the lavandulol composition (Acarus siro; Dilution 10^−12): 55%
- Number of mites on the felt piece impregnated with the lavandulol composition (Acarus siro; Dilution 10^−14): 54%
- Number of mites on the felt piece impregnated with the lavandulol composition (Acarus siro; Dilution 10^−16): 50%
- Number of mites on the felt piece impregnated with the lavandulol composition (Acarus siro; Dilution Undiluted): 1.1%
- attraction of mites (in words) (Acarus siro; [2]): efficiently attracts mites
- attraction of mites (in words) (Acarus siro; undiluted solution): fails to attract mites
- Number of mites on the felt piece impregnated with the lavandulol composition (Tyrophagus putrescentiae; Dilution 10^−3): 34%
- Number of mites on the felt piece impregnated with the lavandulol composition (Tyrophagus putrescentiae; Dilution 10^−6): 44%
- Number of mites on the felt piece impregnated with the lavandulol composition (Tyrophagus putrescentiae; Dilution 10^−7): 48%
- Number of mites on the felt piece impregnated with the lavandulol composition (Tyrophagus putrescentiae; Dilution 10^−9): 38%
- Number of mites on the felt piece impregnated with the lavandulol composition (Tyrophagus putrescentiae; Dilution 10^−12): 47%
- Number of mites on the felt piece impregnated with the lavandulol composition (Tyrophagus putrescentiae; Dilution 10^−13): 49%
- Number of mites on the felt piece impregnated with the lavandulol composition (Tyrophagus putrescentiae; Dilution 10^−14): 69%
- Number of mites on the felt piece impregnated with the lavandulol composition (Tyrophagus putrescentiae; Dilution 10^−15): 63%
- Number of mites on the felt piece impregnated with the lavandulol composition (Tyrophagus putrescentiae; Dilution 10^−16): 60%
- Number of mites on the felt piece impregnated with the lavandulol composition (Tyrophagus putrescentiae; Dilution Undiluted): 2%
- attraction of mites (in words) (Tyrophagus putrescentiae; [2]): efficiently attracts mites
- attraction of mites (in words) (Tyrophagus putrescentiae; undiluted solution): fails to attract mites
- percentage of mites attracted in the sheet (mites): very high
- attraction capabilities, percentage of mites (Dermatophagoides farinae; Dilution 10^−3): 57%
- attraction capabilities, percentage of mites (Dermatophagoides farinae; Dilution 10^−5): 90%
- attraction capabilities, percentage of mites (Dermatophagoides farinae; [3]): 71%
- attraction capabilities, percentage of mites (Dermatophagoides farinae; Dilution 10^−8): 37%
- attraction capabilities, percentage of mites (Dermatophagoides farinae; Dilution 10^−9): 28%
- attraction capabilities, percentage of mites (Dermatophagoides farinae; Dilution Undiluted): 6%
- attraction capabilities, percentage of mites ([1]; Dilution 10^−1): 34%
- attraction capabilities, percentage of mites ([1]; Dilution 10^−3): 56%
- attraction capabilities, percentage of mites ([1]; Dilution 10^−5): 91%
- attraction capabilities, percentage of mites [1, 3]: 64%
- attraction capabilities, percentage of mites ([1]; Dilution 10^−8): 46%
- attraction capabilities, percentage of mites ([1]; Dilution 10^−9): 55%
- attraction capabilities, percentage of mites ([1]; Dilution Undiluted): 8%
